Experiments:
Assay type in all cases: in vivo, Sprague Dawley rats
[1] = test system: renal interstitial fibrosis in rats; assay: Renal interstitial fibrosis in rats with unilateral urethral obstruction; settings: day 10
Description: 130 rats were randomly divided into 13 groups, namely, a sham operation group, a model group, benazapril p.o. Group at 10 mg/kg, RA i.v. groups at 2.5 mg/kg, 5 mg/kg, 25 mg/kg, 75 mg/kg, and 150 mg/kg of RA, and RA p.o. groups at 2.5 mg/kg, 5 mg/kg, 25 mg/kg, 150 mg/kg, and 300 mg/kg of RA. The animals were acclimated for a week before they were all anaesthetised with an i.p. dose of 10% chloral hydrate at 3.0mL/kg and placed on the operating table in right lateral position. The rats were shaved and the operating area was disinfected using iodine tincture and 75% ethanol. The left urethra was exposed and isolated after a left lateral incision was made on the abdominal area and skin, muscles and all other layers of the abdominal wall were incised sequentially. In the sham group, the left urethra was only isolated without being ligated or cut off. In all other animals, the left urethra was ligated with No. 4 suture and obstructed followed by closure of the abdominal wall layer by layer. The animals were anaesthetised again with 10% chloral hydrate 10 days later, blood was collected and serum was separated to determine FN levels. The left kidney was removed after thorough rinsing and then fixed in 4% paraformaldehyde buffer. HYP level was determined according to instructions provided with the kit.

[2] = test system: rats with diabetic nephropathy; assay: Diabetic nephropathy in rats (left nephrectomy + streptozocin); settings: p.o. 10 mg/kg; for creatinine: serum
Description: After 1 week-long acclimation period, animals were anaesthetised with 10% chloral hydrate (0.35 mL/100 g, i.p.) and nephrectomy was exercised to the left kidney. One week later, a single dose of 1% of streptozocin solution was i.v. injected to all animals at 60 mg/kg. After 72h, blood was collected from eyepit to test blood glucose level with the above-mentioned kit. The model was considered successful when blood glucose level >16.7 mmol/L. When the model is established, 130 rats were randomly divided into 13 groups, with 10 animals in each group, namely, a normal control group, a model group, benzanapril p.o. Group at 10 mg/kg, RA i.v. groups at 2.5 mg/kg, 5 mg/kg, 25 mg/kg, 75 mg/kg, and 150 mg/kg of RA, and RA p.o. groups at 5 mg/kg, 10 mg/kg, 50 mg/kg, 150 mg/kg, and 300 mg/kg of RA. The drugs were administered once every day. Blood was collected from eyepit at week 8 and week 16 to determine serum levels of creatinine and urea nitrogen. Urinary protein excretion within 24 hours was also studied. The animals were sacrificed 24 hours after the last dose and kidney removed for histopathological examination.

CRF rats [3] = assay: CRF induced by 5/6 nephrectomy in rats; settings: 8 weeks; p.o. 12 mg/kg
Description: 130 rats were randomly divided into 13 groups, with 10 animals in each group, namely, a normal control group, a model group, methylprednisolone p.o. Group at 12 mg/kg, RA i.v. groups at 2.5 mg/kg, 5 mg/kg, 25 mg/kg, 75 mg/kg, and 150 mg/kg of RA, and RA p.o. groups at 5 mg/kg, 10 mg/kg, 50 mg/kg, 150 mg/kg, and 300 mg/kg of RA. Apart from the normal control group, all other rats were induced to CRF by cutting off 5/6 of the kidneys. 2/3 of the left kidney was removed in the first operation, and one week later the right kidney in the second operation. Dosing started one week after the second operation via p.o. or i.p. routes. Blood was collected from eyepit at week 4 and week 8 to determine creatinine and urea nitrogen levels in sera. 5 animals in each group were sacrificed at week 4 and […] were sacrificed at the end of the study. Pathological changes in renal function were observed through HE and PAS staining of histopathological sections.

CRF rats [4] = assay: CRF induced by 5/6 nephrectomy in rats; settings: p.o. 12 mg/kg
hepatofibrosis in rats = assay: CCl4-induced hepatofibrosis in chronic hepatitis in rats; settings: hepatic; 8 mg/kg, 6 weeks
Description: 120 rats were randomly divided into 12 groups, with 10 in each group, namely, a normal control group, a model group, […] Apart from the normal control group, all rats were s.c. injected 0.3 ml of 40% solution of CC14 in oil per 100 g of body weight once every 3 days for 6 weeks. Animals in the normal control group were s.c. injected 0.3 ml/100 g body weight of oil vehicle following the same schedule as the experimental groups. First dose was doubled for all animals. Six weeks later, drugs were continuously administered to animals in each group for 6 weeks. After the administration was completed, all animals were anaesthetised with i.p. injection of 20% ethyl carbamate solution (Beijing Tongxian District Yucai Fine Chemicals). Blood was collected from abdominal aorta. Hepatic lobule tissue was removed, part of which was fixed with 10% neutral foinialin solution and made into wax blocks within 24-48 hours. […] Serum HA, LN, Pc III levels and hepatic HYP level were determined according to the respective kit instructions.

## CCOC(=O)[C@H](CCc1ccccc1)N[C@H]1CCc2ccccc2N(CC(=O)O)C1=O [Benazapril, reference compound]
[1]; left kidney, benazapril p.o. 10 mg/kg
  HYP: 500 ± 132 µg/g
[1]; serum, p.o. 10 mg/kg
  FN: 17.0 ± 3.6 mg/L
[2]; 8 weeks
  24 h urinary protein excretion: 19.29 ± 2.11 mg/24 h
  Blood glucose: 21.11 ± 4.55 mmol/L
  Serum urea nitrogen: 9.21 ± 1.62 mg/dL
  creatinine: 0.57 ± 0.07 mg/dL
[2]; 16 weeks
  24 h urinary protein excretion: 61.76 ± 6.75 mg/24 h
  Blood glucose: 22.11 ± 4.55 mmol/L
  Serum urea nitrogen: 18.21 ± 3.25 mg/dL
  creatinine: 1.15 ± 0.13 mg/dL

## C[C@H]1C[C@@H]2[C@H]([C@@H](O)C[C@@]3(C)[C@H]2CC[C@]3(O)C(=O)CO)[C@@]2(C)C=CC(=O)C=C12 [Methylprednisolone, reference compound]
CRF rats [3]
  Serum urea nitrogen: 18.21 ± 4.25 mg/dL
CRF rats [4]; 4 weeks
  Serum creatinine: 1.33 ± 0.13 mg/dL
  Serum urea nitrogen: 15.21 ± 3.25 mg/dL
CRF rats [4]; 8 weeks
  Serum creatinine: 1.25 ± 0.17 mg/dL

## CN(CCOc1ccc(CC2SC(=O)NC2=O)cc1)c1ccccn1 (stereo not drawn) [Rosiglitazone, reference compound]
Hepatofibrosis in rats
  HYP: 1259 ± 153 µg/L

Reference: patent publication US20100130604A1, “USE OF ROSMARINIC ACID IN MANUFACTURE OF MEDICAMENTS FOR TREATING OR PREVENTING HEPATIC AND RENAL DISEASES” (SHANGDONG LUYE NATURAL DRUG RESEARCH AND DEVELOPMENT CO., …, priority 2006, published 2010)
